Results on 21 compounds are retold here after patent US20080280879A1, “SUBSTITUTED HETEROCYCLIC DERIVATIVES AND THEIR PHARMACEUTICAL USE AND COMPOSITIONS” (priority 2007, published 2008).

What all share (format): cell-based, Staphylococcus aureus
Assay [1] concerns Staph aureus 1031. In words: MIC in Mueller-Hinton Broth with 50% pooled inactivated human serum, Assay 2, Table 12 column G. To be noted: for MIC: Staphylococcus aureus, 1031, Staph aureus 1031, Assay 2, 50% human serum. As for the experimental part: (§1) The assays described herein include a panel of bacterial isolates of Staphylococcus aureus. Assay 1 comprises the strains noted in Columns A through E, and Assay 2 comprises the strains noted in Columns F through H. The assays are performed in microtiter trays according to Methods for Dilution Antimicrobial Susceptibility Tests for Bacteria that Grow Aerobically; Approved Standard-7th edition (M7-A7) and interpreted according to the Performance Standards for Antimicrobial Susceptibility Testing; 16th Informational Supplement (M100-S16) published by Clinical Laboratory Standards Institute (CLSI). The antibacterial activity is presented in the form of a minimum inhibitory concentration (MIC) value in μg/ml format. The MIC value represents the lowest concentration of drug measured which prevented macroscopically visible growth under the conditions and specific doses tested. The compounds were initially dissolved in DMSO as 30 mM stocks and diluted accordingly to adjust to a concentration of 10 mg/ml or the compounds were dissolved in DMSO at a concentration of 10 mg/ml. For assessment of activity in the presence of human serum, S. aureus 1146 and S. aureus 1031 were inoculated into Mueller-Hinton Broth with 50% pooled inactivated human serum. In some cases, compounds were tested more than once in a particular assay. Where noted, the MIC value shown in Table 12 represents the geometric mean of the data from multiple runs.
(§2) It should be understood that the data in columns A-H represents MIC data in μg/ml and the notation “<=” means ‘less than or equal to’.

In another assay the test system is Staph aureus 2810. Nature of the assay: MIC, microtiter broth dilution (CLSI M7-A7), Assay 2, Table 12 column H, no serum. To be noted: for MIC: Staphylococcus aureus, 2810, Staph aureus 2810, Assay 2, no serum. The method, then: as §1, §2
On the technique in general: In broth dilution the organism is exposed to a series of concentrations in liquid medium.

In assay [2] the test system is Staph aureus 1031. In words: MIC, microtiter broth dilution (CLSI M7-A7), Assay 2, Table 12 column F, no serum. As to conditions: for MIC: Staphylococcus aureus, 1031, Staph aureus 1031, Assay 2, no serum. As for the experimental part: as §1, §2

The structures appear in SMILES notation. In brackets after ≈: the same amount, converted by molar mass.

Turning to `COc1ccc2nccc([C@@H](O)CC[C@@H]3CCN(C4CCc5cc(F)ccc54)C[C@@H]3C(=O)O)c2c1` (single isomer, unassigned) [Example 75], the MIC against Staph aureus 1031 [1], in the assay with Staph aureus 2810 and in the assay on Staph aureus 1031 [2] was above 64 µg/mL throughout.
Consider `COc1ccc2nccc(C(O)CC[C@@H]3CCN(C4CC(OCc5ccccc5)C4)C[C@@H]3C(=O)O)c2c1` (stereo partly drawn) [Example 20, (3R,4R)-1-[3-(benzyloxy)cyclobutyl]-4-[3-hydroxy-3-(6-methoxyquinolin-4-yl)propyl]piperidine-3-carboxylic acid], for which the MIC against Staph aureus 1031 [1] turned out to be 64 µg/mL (≈ 127 µM); against Staph aureus 2810 it was 16 µg/mL (≈ 31.7 µM); in the assay on Staph aureus 1031 [2], 16 µg/mL (≈ 31.7 µM).
Turning to `COC(=O)[C@H]1CN(C2CCc3cc(F)ccc32)CC[C@H]1CCC(O)c1ccnc2ccc(OC)cc12` (stereo partly drawn) [Example 73, methyl (3R,4R)-1-(5-fluoro-2,3-dihydro-1H-inden-1-yl)-4-[3-hydroxy-3-(6-methoxyquinolin-yl)propyl]piperidine-3-carboxylate], the “MIC, column G” value in the assay with Staph aureus 1031 [1] (Staph aureus 1031, Assay 2, 50% human serum) is above 64 µg/mL. Also, in the assay with Staph aureus 2810 (Staph aureus 2810, Assay 2, no serum), the “MIC, column H” value was above 64 µg/mL. Moreover, the “MIC, column F” value in the assay with Staph aureus 1031 [2] (Staph aureus 1031, Assay 2, no serum) is above 64 µg/mL.
With `COc1ccc2nccc(C(O)CC[C@@H]3CCN(C4CCc5cc(F)ccc54)C[C@@H]3C(=O)O)c2c1` (stereo partly drawn) [Example 74, (3R,4R)-1-(5-fluoro-2,3-dihydro-1H-inden-1-yl)-4-(3-hydroxy-3-(6-methoxyquinolin-4-yl)propyl)piperidine-3-carboxylic acid], the MIC with Staph aureus 1031 [1], against Staph aureus 2810 and against Staph aureus 1031 [2] was above 64 µg/mL in each case.
With `COC(=O)[C@H]1CN(C2CCCc3ccccc32)CC[C@H]1CCC(O)c1ccnc2ccc(OC)cc12` (stereo partly drawn) [Example 76, (3R,4R)-methyl 4-(3-hydroxy-3-(6-methoxyquinolin-4-yl)propyl)-1-(1,2,3,4-tetrahydronaphthalen-1-yl)piperidine-3-carboxylate], the MIC against Staph aureus 1031 [1], with Staph aureus 2810 and against Staph aureus 1031 [2] was above 64 µg/mL each time.
For `COc1ccc2nccc(C(O)CC[C@@H]3CCN(C4CCCc5ccccc54)C[C@@H]3C(=O)O)c2c1` (stereo partly drawn) [Example 77, (3R,4R)-4-(3-hydroxy-3-(6-methoxyquinolin-4-yl)propyl)-1-(1,2,3,4-tetrahydronaphthalen-1-yl)piperidine-3-carboxylic acid], the MIC against Staph aureus 1031 [1], in the assay with Staph aureus 2810 and in the assay on Staph aureus 1031 [2] was above 64 µg/mL each time.
Turning to `COC(=O)[C@H]1CN(C2Cc3ccccc3C2)CC[C@H]1CCC(O)c1ccnc2ccc(OC)cc12` (stereo partly drawn) [Example 78, (3R,4R)-methyl 1-(2,3-dihydro-1H-inden-2-yl)-4-(3-hydroxy-3-(6-methoxyquinolin-4-yl)propyl)piperidine-3-carboxylate], the MIC against Staph aureus 1031 [1], in the assay on Staph aureus 2810 and in the assay on Staph aureus 1031 [2] was above 64 µg/mL each time.
As for `COc1ccc2nccc(C(O)CC[C@@H]3CCN(C4Cc5ccccc5C4)C[C@@H]3C(=O)O)c2c1` (stereo partly drawn) [Example 79, (3R,4R)-1-(2,3-dihydro-1H-inden-2-yl)-4-(3-hydroxy-3-(6-methoxyquinolin-4-yl)propyl)piperidine-3-carboxylic acid], the MIC came out at 64 µg/mL (≈ 139 µM) in the assay with Staph aureus 1031 [1], 8 µg/mL (≈ 17.4 µM) against Staph aureus 2810 and 8 µg/mL (≈ 17.4 µM) against Staph aureus 1031 [2].
As to `COc1ccc2nccc(C(O)CC[C@@H]3CCN(C4Cc5ccc(Cl)cc5C4)C[C@@H]3C(=O)O)c2c1` (stereo partly drawn) [Example 80, (3R,4R)-1-(5-chloro-2,3-dihydro-1H-inden-2-yl)-4-(3-hydroxy-3-(6-methoxyquinolin-4-yl)propyl)piperidine-3-carboxylic acid], the MIC is above 64 µg/mL in the assay on Staph aureus 1031 [1], 1 µg/mL (≈ 2.02 µM) with Staph aureus 2810 and 1 µg/mL (≈ 2.02 µM) in the assay with Staph aureus 1031 [2].
Turning to `COc1ccc2nccc(C(O)CC[C@@H]3CCN(C4Cc5cccc(Br)c5C4)C[C@@H]3C(=O)O)c2c1` (stereo partly drawn) [Example 81, (3R,4R)-1-(4-bromo-2,3-dihydro-1H-inden-2-yl)-4-(3-hydroxy-3-(6-methoxyquinolin-4-yl)propyl)piperidine-3-carboxylic acid], the MIC in the assay with Staph aureus 1031 [1] is above 64 µg/mL; against Staph aureus 2810, 4 µg/mL (≈ 7.41 µM); in the assay with Staph aureus 1031 [2], 4 µg/mL (≈ 7.41 µM).
As for `COC(=O)[C@H]1CN(CC2Cc3ccccc3C2)CC[C@H]1CCC(O)c1ccnc2ccc(OC)cc12` (stereo partly drawn) [Example 82, (3R,4R)-methyl 1-((2,3-dihydro-1H-inden-2-yl)methyl)-4-(3-hydroxy-3-(6-methoxyquinolin-4-yl)propyl)piperidine-3-carboxylate], the minimal inhibitory concentration (MIC) with Staph aureus 1031 [1] is 32 µg/mL (≈ 65.5 µM); in the assay with Staph aureus 2810, 16 µg/mL (≈ 32.7 µM); with Staph aureus 1031 [2], 8 µg/mL (≈ 16.4 µM).
For `COc1ccc2nccc(C(O)CC[C@@H]3CCN(CC4Cc5ccccc5C4)C[C@@H]3C(=O)O)c2c1` (stereo partly drawn) [Example 83, (3R,4R)-1-((2,3-dihydro-1H-inden-2-yl)methyl)-4-(3-hydroxy-3-(6-methoxyquinolin-4-yl)propyl)piperidine-3-carboxylic acid], the MIC in the assay with Staph aureus 1031 [1] was 64 µg/mL (≈ 135 µM); against Staph aureus 2810, 8 µg/mL (≈ 16.9 µM); against Staph aureus 1031 [2] it was 8 µg/mL (≈ 16.9 µM).
In the case of `COc1ccc2nccc(C(O)CC[C@@H]3CCN(CC4(O)Cc5ccccc5C4)C[C@@H]3C(=O)O)c2c1` (stereo partly drawn) [Example 84, (3R,4R)-1-((2-hydroxy-2,3-dihydro-1H-inden-2-yl)methyl)-4-(3-hydroxy-3-(6-methoxyquinolin-4-yl)propyl)piperidine-3-carboxylic acid], the MIC with Staph aureus 1031 [1], against Staph aureus 2810 and against Staph aureus 1031 [2] was above 64 µg/mL each time.
In the case of `COc1ccc2nccc(C(O)CC[C@@H]3CCN(CC4CCc5nc(C(C)C)ncc5C4)C[C@@H]3C(=O)O)c2c1` (stereo partly drawn) [Example 116, (3R,4R)-4-[3-hydroxy-3-(6-methoxyquinolin-4-yl)propyl]-1-[(2-isopropyl-5,6,7,8-tetrahydroquinazolin-6-yl)methyl]piperidine-3-carboxylic acid], the MIC in the assay with Staph aureus 1031 [1], against Staph aureus 2810 and in the assay on Staph aureus 1031 [2] was above 64 µg/mL each time.
As for `COc1ccc2nccc(C(O)CC[C@@H]3CCN(CC4CCc5nc(CC6CC6)ncc5C4)C[C@@H]3C(=O)O)c2c1` (stereo partly drawn) [Example 117, (3R,4R)-1-{[2-(cyclopropylmethyl)-5,6,7,8-tetrahydroquinazolin-6-yl]methyl}-4-[3-hydroxy-3-(6-methoxyquinolin-4-yl)propyl]piperidine-3-carboxylic acid], the minimal inhibitory concentration (MIC) against Staph aureus 1031 [1], with Staph aureus 2810 and in the assay on Staph aureus 1031 [2] was above 64 µg/mL throughout.
Consider `COc1ccc2nccc(C(O)CC[C@@H]3CCN(CC4CCc5nc(-c6ccccc6)ncc5C4)C[C@@H]3C(=O)O)c2c1` (stereo partly drawn) [Example 118, (3R,4R)-4-[3-hydroxy-3-(6-methoxyquinolin-4-yl)propyl]-1-[(2-phenyl-5,6,7,8-tetrahydroquinazolin-6-yl)methyl]piperidine-3-carboxylic acid], for which the MIC in the assay with Staph aureus 1031 [1], against Staph aureus 2810 and with Staph aureus 1031 [2] was above 64 µg/mL each time.
On to `COc1ccc2nccc(C(O)CC[C@@H]3CCN(CC4CCc5nc(-c6cnccn6)ncc5C4)C[C@@H]3C(=O)O)c2c1` (stereo partly drawn) [Example 119, (3R,4R)-4-[3-hydroxy-3-(6-methoxyquinolin-4-yl)propyl]-1-[(2-pyrazin-2-yl-5,6,7,8-tetrahydroquinazolin-6-yl)methyl]piperidine-3-carboxylic acid], for which the MIC with Staph aureus 1031 [1], with Staph aureus 2810 and against Staph aureus 1031 [2] was above 64 µg/mL throughout.
On to `COc1ccc2nccc(C(O)CC[C@@H]3CCN(CC4CCc5nc(N6CCCCC6)ncc5C4)C[C@@H]3C(=O)O)c2c1` (stereo partly drawn) [Example 120, (3R,4R)-4-[3-hydroxy-3-(6-methoxyquinolin-4-yl)propyl]-1-[(2-piperidin-1-yl-5,6,7,8-tetrahydroquinazolin-6-yl)methyl]piperidine-3-carboxylic acid], for which the MIC with Staph aureus 1031 [1], against Staph aureus 2810 and with Staph aureus 1031 [2] was above 64 µg/mL in each case.
For the compound `COC(=O)[C@H]1CN(C2CN(c3ccccn3)C2)CC[C@H]1CCC(O)c1ccnc2ccc(OC)cc12` (stereo partly drawn) [Example 124, methyl (3R,4R)-4-[3-hydroxy-3-(6-methoxyquinolin-4-yl)propyl]-1-(1-pyridin-2-ylazetidin-3-yl)piperidine-3-carboxylate], the MIC in the assay with Staph aureus 1031 [1], against Staph aureus 2810 and in the assay with Staph aureus 1031 [2] was above 64 µg/mL in each case.
`COc1ccc2nccc(C(O)CC[C@@H]3CCN(C4CN(c5ccccn5)C4)C[C@@H]3C(=O)O)c2c1` (stereo partly drawn) [Example 125, (3R,4R)-4-[3-hydroxy-3-(6-methoxyquinolin-4-yl)propyl]-1-(1-pyridin-2-ylazetidin-3-yl)piperidine-3-carboxylic acid]: the minimal inhibitory concentration (MIC) against Staph aureus 1031 [1] is above 64 µg/mL; with Staph aureus 2810, 32 µg/mL (≈ 67.1 µM); in the assay on Staph aureus 1031 [2], above 64 µg/mL.
For `COc1ccc2ncc(Cl)c(CCNC3(C(=O)O)CCCN(CC4CCc5nc(C)ncc5C4)CC3)c2c1` (stereo not drawn) [Example 158, 4-{[2-(3-chloro-6-methoxyquinolin-4-yl)ethyl]amino}-1-[(2-methyl-5,6,7,8-tetra hydroquinazolin-6-yl)methyl]azepane-4-carboxylic acid], the MIC is above 64 µg/mL against Staph aureus 1031 [1], 32 µg/mL (≈ 59.5 µM) against Staph aureus 2810 and 32 µg/mL (≈ 59.5 µM) against Staph aureus 1031 [2].

The MIC is the lowest concentration that inhibits growth of the organism.
